# Data taken from patent US7358057B2, “QM-7 and QT-6 cells transfected with mutant cell surface expressed channel receptors and assays using the transfected cells” (Memory Pharmaceuticals Corporation, priority 2002, dated 2008).
# Read-outs that look alike come from different tables or passages of the source.
# Assays:
# wild type α7 receptor = molecular target: T1, wild type α7 receptor (Homo sapiens, UniProt P36544); test: Real time, high throughput Ca++ imaging assay using FLIPR, QM-7 cells transiently transfected with wild type α7; type: cell-based; details: QM-7 cells transiently transfected with wild type human α7, Fluo 3 dye, FIG. 1
# T1 construct: expressed in transfected cells; host or cells: QM-7 cells (quail), transient transfection with Lipofectamine PLUS
# T1 sequence (P36544 23-502): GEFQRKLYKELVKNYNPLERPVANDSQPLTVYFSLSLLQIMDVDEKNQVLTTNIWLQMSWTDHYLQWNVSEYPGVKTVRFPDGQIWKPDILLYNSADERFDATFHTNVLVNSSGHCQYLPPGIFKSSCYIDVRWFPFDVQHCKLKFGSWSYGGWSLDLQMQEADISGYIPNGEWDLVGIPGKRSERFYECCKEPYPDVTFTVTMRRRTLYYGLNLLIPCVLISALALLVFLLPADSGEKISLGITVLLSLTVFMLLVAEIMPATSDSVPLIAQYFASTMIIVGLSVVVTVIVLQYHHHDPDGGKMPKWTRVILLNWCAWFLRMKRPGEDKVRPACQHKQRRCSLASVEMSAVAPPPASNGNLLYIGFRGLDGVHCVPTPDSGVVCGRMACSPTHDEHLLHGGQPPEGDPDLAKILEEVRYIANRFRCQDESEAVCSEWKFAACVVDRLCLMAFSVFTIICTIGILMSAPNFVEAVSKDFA
# Description: (§1) QM-7 cells were transiently transfected with either wild type or L 270T mutant α7 receptor with Lipofectamine PLUS reagent (Invitrogen), in 175 cm^2 flasks. Twenty four hours after the transfection, the cells were collected and re-seeded into a 96-well plate at a density of 40,000 cells/well. Twenty four hours after re-seeding, the cell were incubated with Ca^++ sensitive dye Fluo 3, washed and stimulated with the selective alpha 7 agonist GTS-21. Cellular Ca^++ signal was detected with FLIPR, quantified and plotted against the concentration of GTS-21.
# L270T mutant α7 receptor = molecular target: T2, L270T mutant α7 receptor (Homo sapiens, UniProt P36544, L270T); test: Real time, high throughput Ca++ imaging assay using FLIPR, QM-7 cells transiently transfected with L270T mutant α7; type: cell-based
# T2 construct: expressed in transfected cells; host or cells: QM-7 cells (quail), transient transfection with Lipofectamine PLUS
# T2 sequence (P36544 23-502 L270T): as the sequence (P36544 23-502) above, with L248T counted along it
# Description: as §1
# [1] = QM-7 cells transiently transfected with human L270T α7, Fluo 3 dye, FLIPR, FIG. 1
compound,measurement,setting,value
COc1ccc(/C=C2\CCCN=C2c2cccnc2)c(OC)c1 [GTS-21],Cellular Ca++ signal on stimulation,wild type α7 receptor,failed to give a meaningful signal
same,Cellular Ca++ signal on stimulation,L270T mutant α7 receptor; [1],dose-dependent increase of Ca^++ signal
same,Concentration at which the Ca++ signal saturated,L270T mutant α7 receptor; [1],10 µM
Clc1ccc(C2CC3CCC2N3)cn1 (stereo not drawn) [epibatidine],Responsiveness of cells to agonist (Ca++ signal),L270T mutant α7 receptor; QM-7 cells transiently transfected with the mutant,responsive
CN1CCCC1c1cccnc1 (stereo not drawn) [nicotine],Responsiveness of cells to agonist (Ca++ signal),L270T mutant α7 receptor,responsive
"CCN1C[C@]2(COC(=O)c3ccccc3N3C(=O)C[C@H](C)C3=O)CC[C@H](OC)[C@@]34[C@@H]5C[C@H]6[C@H](OC)[C@@H]5[C@](O)(C[C@@H]6OC)[C@@](O)([C@@H](OC)[C@H]23)[C@@H]14 [MLA, Methyllycaconitine]",Attenuation of signals from epibatidine stimulation,L270T mutant α7 receptor,attenuated
